Test results reported in patent US12655156B2, “Oxadiazolopyrazines and oxadiazolopyridines useful as mitochondrial uncouplers” (Virginia Tech Intellectual Properties, Inc., priority 2018, dated 2026).

Tested on: whole cells (NMuLi, C2C12, and L6 cells, isolated cardiomyocytes, human primary fibroblasts)
Experiment: Oxygen consumption rate (OCR) in whole cells, Seahorse XF-24 Flux Analyzer
Assay type: cell-based
Settings: increase in OCR; binned EC50 values
Procedure: Biological activities of the compounds synthesized is determined by determining increase in oxygen consumption rate (OCR).
Oxygen consumption rate (OCR) in whole cells is measured in general accordance with the method of Kenwood B M et al. (Mol. Met. (2014) 3:114-123).
OCR is measured using a Seahorse XF-24 Flux Analyzer (Seahorse Biosciences, North Billerica, MA). NMuLi, C2C12, and L6 cells are seeded in a Seahorse 24-well tissue culture plate at a density of 3.5×10^4 cells/well, isolated cardiomyocytes at a density of 4×10^4 cells/well, and human primary fibroblasts at a density of 1.1×10^4 cells/well. The cells are then allowed to adhere for 24 h. Prior to the assay, the media is changed to unbuffered DMEM containing pyruvate and glutamine (Gibco #12800-017, pH=7.4 at 37° C.) and the cells are equilibrated for 30 mins at 37°° C. Compounds are injected during the assay and OCR is measured using 2 min measurement periods.
2-3 wells are used per condition and averaged over three plates (n=6-9). Statistical significance is determined by two-way ANOVA with Bonferroni's posttest.
Activities are reported as binned EC50 values: A=5 μM or less; B=>5 to 20 μM; C=over 20 μM; NA=not active.

SMILES | EC50
Oc1nc2nonc2nc1NC1CCCCC1 [1-212, 6-(cyclohexylamino)-[1,2,5]oxadiazolo[3,4-b]pyrazin-5-ol] | > 20 µM
Cc1cc(Nc2nc3nonc3nc2O)ccc1OCC(F)(F)F [1-89, 6-((3-Methyl-4-(2,2,2-trifluoroethoxy)phenyl)amino)-[1,2,5]oxadiazolo[3,4-b]pyrazin-5-ol] | 5 to 20 µM
Oc1nc2nonc2nc1Nc1cccc(-c2ccc(F)c(C(F)F)c2)c1 [1-114, 6-((3′-(difluoromethyl)-4′-fluoro-[1,1′-biphenyl]-3-yl)amino)-[1,2,5]oxadiazolo[3,4-b]pyrazin-5-ol] | ≤ 5 µM
Oc1nc2nonc2nc1Nc1ccc(OCC(F)(F)F)c(F)c1 [1-90, 6-((3-Fluoro-4-(2,2,2-trifluoroethoxy)phenyl)amino)-[1,2,5]oxadiazolo[3,4-b]pyrazin-5-ol] | 5 to 20 µM
Oc1nc2nonc2nc1Nc1ccccc1F [1-3, 6-((2-Fluorophenyl)amino)-[1,2,5]oxadiazolo[3,4-b]pyrazin-5-ol] | 5 to 20 µM
Oc1nc2nonc2nc1Nc1ccc(I)cc1OC(F)(F)F [1-35, 6-((4-Iodo-2-(trifluoromethoxy)phenyl)amino)-[1,2,5]oxadiazolo[3,4-b]pyrazin-5-ol] | ≤ 5 µM
Oc1nc2nonc2nc1Nc1cccc(-c2ccc(C(F)(F)F)nc2)c1 [1-115, 6-((3-(6-(trifluoromethyl)pyridin-3-yl)phenyl)amino)-[1,2,5]oxadiazolo[3,4-b]pyrazin-5-ol] | > 20 µM
Oc1nc2nonc2nc1Nc1ccc(OC(F)(F)F)cc1Br [1-38, 6-((2-Bromo-4-(trifluoromethoxy)phenyl)amino)-[1,2,5]oxadiazolo[3,4-b]pyrazin-5-ol] | ≤ 5 µM
Oc1nc2nonc2nc1Nc1ccc(OC(F)(F)C(F)F)cc1 [1-28, 6-((4-(1,1,2,2-Tetrafluoroethoxy)phenyl)amino)-[1,2,5]oxadiazolo[3,4-b]pyrazin-5-ol] | 5 to 20 µM
Oc1nc2nonc2nc1NC12CC3CC(CC(C3)C1)C2 [1-81, 6-(((3S,5S,7S)-adamantan-1-yl)amino)-[1,2,5]oxadiazolo[3,4-b]pyrazin-5-ol] | 5 to 20 µM
CCCCOc1ccc(Nc2nc3nonc3nc2O)cc1 [1-95, 6-((4-butoxyphenyl)amino)-[1,2,5]oxadiazolo[3,4-b]pyrazin-5-ol] | ≤ 5 µM
Oc1nc2nonc2nc1Nc1ccc(C2CCCCC2)cc1 [1-205, 6-((4-cyclohexylphenyl)amino)-[1,2,5]oxadiazolo[3,4-b]pyrazin-5-ol] | ≤ 5 µM
CCc1ccc(Nc2nc3nonc3nc2O)cc1 [1-61, 6-((4-Ethylphenyl)amino)-[1,2,5]oxadiazolo[3,4-b]pyrazin-5-ol] | 5 to 20 µM
COc1ccccc1Nc1nc2nonc2nc1O [1-94, 6-((2-methoxyphenyl)amino)-[1,2,5]oxadiazolo[3,4-b]pyrazin-5-ol] | > 20 µM
Oc1nc2nonc2nc1Nc1cccc(-c2ccc(OC(F)(F)F)cc2)c1 [1-136, 6-((4′-(trifluoromethoxy)-[1,1′-biphenyl]-3-yl)amino)-[1,2,5]oxadiazolo[3,4-b]pyrazin-5-ol] | ≤ 5 µM
O=[N+]([O-])c1cccc(Nc2nc3nonc3nc2O)c1 [1-206, 6-((3-nitrophenyl)amino)-[1,2,5]oxadiazolo[3,4-b]pyrazin-5-ol] | > 20 µM
CCCCCCc1ccc(Nc2nc3nonc3nc2O)c(F)c1 [1-67, 6-((2-Fluoro-4-hexylphenyl)amino)-[1,2,5]oxadiazolo[3,4-b]pyrazin-5-ol] | ≤ 5 µM
Oc1nc2nonc2nc1Nc1cccc(C(F)(F)F)c1F [1-37, 6-((2-Fluoro-3-(trifluoromethyl)phenyl)amino)-[1,2,5]oxadiazolo[3,4-b]pyrazin-5-ol] | ≤ 5 µM
CCCCCCCCNc1nc2nonc2nc1O [1-74, 6-(octylamino)-[1,2,5]oxadiazolo[3,4-b]pyrazin-5-ol] | ≤ 5 µM
Oc1nc2nonc2nc1Nc1ccc(OC(F)(F)F)cc1Cl [1-41, 6-((2-Chloro-4-(trifluoromethoxy)phenyl)amino)-[1,2,5]oxadiazolo[3,4-b]pyrazin-5-ol] | ≤ 5 µM
